Ends that are not written are not given here.
What was measured:
[1] = tested on: platelets in citrated PRP; assay: Functional screening of candidate anti-mimotope bacteriophage clones, ristocetin-induced aggregation in citrated PRP; type: cell-based, human; conditions: 150 μL phage + 250 μL citrated PRP, 1 hr 22° C., 0.8 mg/mL ristocetin (FIG. 8)
Method: FIG. 8 illustrates the functional screening of candidate anti-mimotope bacteriophage clones. Following incubation of 150 μL of the indicated bacteriophage clones with 250 μL of citrated PRP for 1 hr at 22° C., aggregation was initiated by the addition of 0.8 mg/mL ristocetin under stirring conditions at 37° C.;
(§1) Citrated human platelet-rich plasma (PRP) was prepared by standard methods (Miller et al. 1983). For study of C-34 neutralization by mimotope peptide, 350 μL of PRP containing 150,000 platelets/μL was incubated for 10 min at 22° C. with phosphate-buffered saline (PBS), 20 μg/mL C-34 mab, or 20 μg/mL C-34 that had previously been incubated for 30 min at 22° C. with varying concentrations of peptides. The PRP was then brought to 37° C. and stirred at 1200 rpm in a Chrono-Log lumi-aggregometer (Chrono-Log Corporation, Havertown, Pa.). Aggregation was initiated by the addition of 1 mg/mL ristocetin (Helena Laboratories, Beaumont, Tex.). For screening of bacteriophage clones displaying potential anti-mimotope peptides, 150 μl of PEG/NaCl precipitated phage was incubated with 250 μl of citrated PRP for one hour at 22° C., transferred to the aggregometer, following which ristocetin was added at a final concentration of 0.8 mg/ml.
The mimotope decapeptide itself was then used as a probe to search for “anti-mimotope” peptides. […]

formalin-fixed platelets = type: cell-based, human
Method: as §1
Further studies were undertaken with chemically synthesized peptide having SEQ ID NO:94: […]. This decapeptide was able to inhibit ristocetin-induced aggregation fully, with an IC50 occurring between 200–400 μg/mL (FIG. 9). […] In order to approximate more closely the native structure, peptides with an (Arg→Lys) substitution at position 7 were then studied. […] Whereas the […] Finally, both the wild-type GPIb alpha 228–237 peptide (SEQ ID NO:108) containing Gly at residue 233 and the PT-vWD variant with Val replacing Gly at this position (SEQ ID NO:107) were synthesized. […] Lyophilized peptides were reconstituted in PBS, pH 6.0 and 150 μL of varying dilutions incubated for 2–4 hr at 22° C. with 250 μL of formalin-fixed platelets ([…]), prior to aggregometry in which the addition of 1 U/mL purified vWF was followed by the addition of 0.9 mg/mL ristocetin.

mab SZ-2 = assay: ELISA: phage binding to biotinylated SZ-2 inhibits binding of SZ-2 to immobilized glycocalicin; conditions: phage clone
Method: At this point, an ELISA assay can be used to evaluate individual clones, if the number of clones is high. In brief, phage having undergone two PEG precipitations, and subsequently adjusted for titer, can be incubated overnight with biotinylated mab, following which the mab-phage mixture can be added to wells of microtiter plates that have been previously coated with formalin-fixed platelets (or other suitable immobilized target recognized by the mab). Following a series of washing steps, avidin-peroxidase is added, the wells washed again, chromogenic substrate added, and the wells eventually read on an ELISA plate reader. The relative decrease in strength of signal in this assay provides guidance as to the most promising clones for further study. Consensus peptides identified in this manner can be chemically synthesized and characterized with respect to ability to bind original antibody. Peptides showing high binding affinity for the antibody can then be used as immunogens in mice and/or rabbits. […]

[2] = target: human platelet glycoprotein Ib/IX complex (human, UniProt P07359 17-652; P13224 26-206; P14770 17-177); assay: cell-based or functional assay
Sequence of human platelet glycoprotein Ib/IX complex (P07359 17-652, chain 1 of 3): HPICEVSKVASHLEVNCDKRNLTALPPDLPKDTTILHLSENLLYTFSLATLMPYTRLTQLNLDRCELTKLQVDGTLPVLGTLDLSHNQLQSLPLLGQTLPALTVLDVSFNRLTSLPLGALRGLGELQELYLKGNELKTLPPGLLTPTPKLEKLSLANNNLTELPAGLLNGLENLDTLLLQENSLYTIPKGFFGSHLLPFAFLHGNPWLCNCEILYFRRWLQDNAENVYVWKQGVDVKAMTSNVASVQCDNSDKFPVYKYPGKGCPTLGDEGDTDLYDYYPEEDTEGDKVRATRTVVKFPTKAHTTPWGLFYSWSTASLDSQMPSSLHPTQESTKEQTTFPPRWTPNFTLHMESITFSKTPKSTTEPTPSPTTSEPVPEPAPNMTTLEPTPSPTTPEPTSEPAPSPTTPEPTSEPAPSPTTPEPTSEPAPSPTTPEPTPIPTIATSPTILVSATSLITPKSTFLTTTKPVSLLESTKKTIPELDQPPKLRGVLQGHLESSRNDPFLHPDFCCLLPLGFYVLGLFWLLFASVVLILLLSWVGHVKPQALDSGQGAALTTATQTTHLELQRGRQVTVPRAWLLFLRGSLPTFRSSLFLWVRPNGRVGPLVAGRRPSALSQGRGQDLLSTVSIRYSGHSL
Sequence of human platelet glycoprotein Ib/IX complex (P13224 26-206, chain 2 of 3): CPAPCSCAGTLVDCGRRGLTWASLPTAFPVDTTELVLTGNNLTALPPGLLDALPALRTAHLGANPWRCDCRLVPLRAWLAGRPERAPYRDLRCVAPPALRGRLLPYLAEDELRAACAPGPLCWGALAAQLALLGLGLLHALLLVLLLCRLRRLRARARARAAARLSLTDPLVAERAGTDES
Sequence of human platelet glycoprotein Ib/IX complex (P14770 17-177, chain 3 of 3): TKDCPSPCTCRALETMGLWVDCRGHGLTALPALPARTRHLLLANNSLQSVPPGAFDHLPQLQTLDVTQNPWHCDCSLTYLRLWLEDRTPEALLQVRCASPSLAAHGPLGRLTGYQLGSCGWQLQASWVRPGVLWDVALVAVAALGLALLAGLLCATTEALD

## RHVAWWRQGV [SEQ ID NO:94, RHVAWWRQGV]
[1]
  inhibitory activity of bacteriophage clone in functional platelet assay: inhibitory activity above background level
formalin-fixed platelets
  IC50 for inhibition of ristocetin-induced aggregation: 200 to 400 µg/mL
formalin-fixed platelets; formalin-fixed platelets, 1 U/mL purified vWF, 0.9 mg/mL ristocetin
  inhibition of ristocetin-induced aggregation (extent, in words): fully

## WHWRSSWKSG [SEQ ID NO:83]
Mab SZ-2
  neutralization of SZ-2 binding to immobilized glycocalicin: fully neutralizing

## RHVAWWRQGV [chemically synthesized peptide having SEQ ID NO:94]
[2]
  IC50 of inhibition of ristocetin-induced aggregation of formalin-fixed platelets with vWF: 200 to 400 µg/mL

Source: patent publication US7074888B1, “Mimotopes and anti-mimotopes of human platelet glycoprotein Ib/IX” (The Research Foundation of State University of New York, priority 1995, dated 2006)
